Holding throughout (assay): DTP human tumour cell line panel, 48 h
The test system of assay [1] is A549 NSCLC.
Assay [2] deals with ACHN renal.
The subject of assay [3] is HL-60(TB) leukemia.
Assay [4] relates to HT29 colon.
Assay [5] has as its system MDA-MB-435.
In assay [6] the test system is NCI-H23 lung.
Assay [7] deals with NCI-H460 lung.
Assay [8] has as its system OVCAR-5 ovarian.
The test system of assay [9] is PC-3 prostate.
The test system of assay [10] is SK-MEL-5 melanoma.
Assay [11] relates to U251 CNS.
Assay [12] has as its system SF-268 CNS.

SMILES strings stand for the structures. Several values for one entry are separate records, joined by “and”; a condition that tells them apart may be missing. Identical values can stand only once.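 Step 1: Grow cells in 96-well plates. Step 2: Expose to compound for 48 hours at 5 concentrations. Step 3: Interpolate endpoints linearly; if unreached, use highest concentration. GI50 = concentration required for 50% inhibition of growth. The concentration for full growth arrest is given as TGI.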 A value given as a limit tells only on which side of the number the result lay.

The TGI is the concentration giving total growth inhibition. Broadly, the GI50 is the concentration giving 50% growth inhibition.

For `NC(=S)NNCC(=O)CC(O)(C(F)(F)F)C(F)(F)Cl` (centres undefined), the TGI in assay [1], in assay [2], in assay [3], in assay [4], in assay [5] and in assay [6] was > 100 µM each time. Further, the total growth inhibition concentration (TGI) in [7], in assay [8], in assay [9], in assay [10] and in assay [11] was > 100 µM each time.
Take `CSc1c(C(C)=O)c(O)n(-c2ccc(C)cc2)c(=O)c1C#N`: the concentration for total growth inhibition (TGI) in [1], in assay [3], in assay [4], in assay [5], in [6] and in assay [7] was > 100 µM in each case. In addition, the concentration for total growth inhibition (TGI) in assay [8], in [9], in assay [12], in assay [10] and in assay [11] was > 100 µM in each case.
Consider `NC1=Nc2cc(C(F)(F)F)ccc2Sc2nc3ccccc3n21`, for which the TGI in assay [1] was > 100 µM; in [2], > 100 µM; in assay [3] it was > 26 µM; in assay [4], > 100 µM; in [5], > 100 µM; in assay [6] it was > 100 µM. Besides, the total growth inhibition concentration (TGI) in assay [7], in [8], in assay [9], in assay [12], in assay [10] and in assay [11] was > 100 µM throughout.
Consider `CCCOC(=O)c1cc(O)c(O)c(O)c1`, for which the TGI is > 100 µM in assay [1]; > 100 µM in assay [2]; > 100 µM in [3]; > 100 µM in assay [4]; 81.1 µM in [5]; > 100 µM in [6]. Moreover, the TGI in assay [7], in assay [8], in [9], in [12], in [10] and in [11] was > 100 µM in each case.
For the molecule `O=C(O)CN1C(=O)c2ccc(NC(=O)C(=O)O)cc2S1(=O)=O`, the total growth inhibition concentration (TGI) in [1], in [2], in assay [3], in [5], in assay [6] and in assay [7] was > 100 µM in each case. In addition, the concentration for total growth inhibition (TGI) in [8], in assay [9], in assay [12], in assay [10] and in assay [11] was > 100 µM in each case.
In the case of `CNC(=O)OCc1cnc([N+](=O)[O-])n1C`, the total growth inhibition concentration (TGI) in assay [1], in assay [2], in [3], in assay [4], in assay [5] and in assay [6] was > 100 µM each time. Also, the TGI in assay [7], in assay [8], in assay [9], in assay [12], in assay [10] and in assay [11] was > 100 µM in each case.
On to `CCOC(=O)N1c2ccccc2C(C)=CC(C)C1C` (centres undefined), for which the total growth inhibition concentration (TGI) in assay [1] was > 100 µM; in [2], > 100 µM; in [3] it was 57.2 µM; in assay [4], 40.3 µM; in [5], 15.8 µM; in assay [6], 60.1 µM. The TGI is > 100 µM in [7]; > 100 µM in assay [8]; > 100 µM in [9]; > 100 µM in assay [12]; 39.6 µM in assay [10].
Turning to `O=C(NNC(=O)c1ccco1)c1ccco1`, the concentration for total growth inhibition (TGI) in assay [1], in assay [3], in assay [4], in assay [5], in [7] and in assay [8] was > 100 µM each time. For the same molecule, the TGI in [9], in assay [12], in [10] and in [11] was > 100 µM throughout.
With `Nc1nc(Sc2ccc([N+](=O)[O-])c3nonc23)c2[nH]cnc2n1`, the TGI in [1] is 25.1 µM; in [2] it was 10.4 µM; in [3], 4.86 µM; in [4] it was 20.9 µM; in assay [5], 12 µM; in [6], 10.9 µM. The concentration for total growth inhibition (TGI) stood at 10.7 µM in assay [7]; 17.3 µM in assay [8]; 18 µM in assay [9]; 18 µM in assay [12]; 7.8 µM in assay [10]; 21.7 µM in [11].
Take `CC1(C)N=C(C(N)=O)c2[nH]cnc2N1`: the TGI in assay [1], in assay [2], in assay [3], in assay [4], in [5] and in [6] was > 100 µM each time. In addition, the TGI in assay [7], in assay [8], in assay [9], in [12], in assay [10] and in [11] was > 100 µM each time.
Consider `CO[C@@]12C[C@H](CNC(=O)c3ccc[nH]3)O[C@@H]1NC(=O)N2`, for which the TGI in assay [1], in assay [2], in assay [3], in assay [4], in [5] and in [6] was > 100 µM throughout. Further, the TGI in [7], in assay [8], in [9], in assay [12], in assay [10] and in assay [11] was > 100 µM in each case.
Turning to `ClC1=NSSC1(Cl)Cl`, the TGI in [1] was > 100 µM; in assay [2] it was 39.5 µM; in assay [3] it was 5.25 µM; in [4], > 100 µM; in assay [5], > 100 µM; in assay [6], > 100 µM. In addition, the TGI was > 100 µM in assay [7]; 85 µM in [8]; > 100 µM in assay [9]; 28.8 µM in assay [10]; > 100 µM in [11].
In the case of `Cc1nc2ccc(NCCN(C)C)c3c(=O)c4ccccc4n1c23`, the TGI in assay [1] is 6.42 µM; in assay [2] it was 22.3 µM; in [3] it was > 47.5 µM; in assay [4], 10.8 µM; in assay [5] it was 16.1 µM; in assay [6], 9.94 µM. For the same molecule, the TGI was 10.8 µM in [7]; 21 µM in [8]; 8.8 µM in assay [9]; 20.2 µM in assay [12]; 8.95 µM in assay [10]; 16.2 µM in assay [11].
As to `Cc1cccc2c(=O)c3c(O)cc(O)cc3n(C)c12`, the TGI in [1], in assay [2], in assay [3], in [4], in assay [5] and in assay [6] was > 100 µM throughout. Besides, the TGI in [7], in assay [8], in assay [9], in assay [12], in assay [10] and in assay [11] was > 100 µM each time.
In the case of `CC(=O)OC1CCn2c1nc1cc([N+](=O)[O-])c(C)cc12` (centres undefined), the TGI in assay [1], in assay [2], in assay [3], in assay [4], in assay [5] and in assay [6] was > 100 µM throughout. Further, the total growth inhibition concentration (TGI) in [7], in [9], in assay [12], in [10] and in assay [11] was > 100 µM each time.
Take `CCOC(=O)C1=C(O)CC(=O)N=C1N1CCCC1`: the total growth inhibition concentration (TGI) in [1], in assay [2], in [3], in [4], in assay [5] and in [6] was > 100 µM each time. Further, the TGI in [8], in [9], in [12], in assay [10] and in assay [11] was > 100 µM throughout.
`Nc1cccc(-c2cc(=O)c3cc4c(cc3[nH]2)OCO4)c1`: the TGI in assay [1] is > 47.8 µM; in [2] it was > 100 µM; in assay [3], > 100 µM; in [4] it was 4.25 µM; in assay [5], 0.415 µM; in assay [6], 22.6 µM. The TGI in [7] was > 100 µM; in assay [8] it was > 100 µM; in assay [9] it was 13 µM; in [12], > 100 µM; in assay [11] it was 24.9 µM.
Turning to `CC1CC(=O)N(N(C)C)C2(C#N)C(=O)N=C(N)C12C#N` (centres undefined), the concentration for total growth inhibition (TGI) in assay [1] is > 100 µM; in assay [2] it was > 100 µM; in assay [3], 51.7 µM; in assay [4], > 100 µM; in [5] it was > 100 µM; in assay [6], > 100 µM. Further, the total growth inhibition concentration (TGI) in assay [8], in assay [9], in assay [12], in assay [10] and in assay [11] was > 100 µM in each case.
As to `COC(=O)/C=C(C)/C=C\COC1CCCCO1` (centres undefined), the concentration for total growth inhibition (TGI) in assay [1], in assay [2], in assay [3], in assay [5], in assay [6] and in [7] was > 100 µM throughout. The total growth inhibition concentration (TGI) in assay [8], in assay [9], in [12], in [10] and in assay [11] was > 100 µM in each case.
`O=C1NC(N2CCCC(CO)C2)=N/C1=C\c1cccs1` (centres undefined): the total growth inhibition concentration (TGI) in assay [1], in [2], in [3], in assay [4], in assay [5] and in assay [6] was > 100 µM in each case. Besides, the TGI in assay [8], in [9], in assay [12], in assay [10] and in [11] was > 100 µM in each case.
Turning to `Cc1ccc(/C=c2\cc3oc(=O)c4cccc(c4-3)c2=O)cc1`, the concentration for total growth inhibition (TGI) in [2], in assay [3], in [4], in [5], in assay [6] and in assay [7] was > 100 µM in each case. Moreover, the TGI in assay [8], in assay [9], in assay [12] and in assay [11] was > 100 µM in each case.
For `CC(=O)N[C@@H](Cc1ccc(O)cn1)C(=O)NCc1ccc(Cl)cc1`, the TGI in assay [1], in assay [2], in assay [3], in assay [4], in [5] and in assay [6] was > 100 µM throughout. Besides, the TGI in assay [7], in assay [8], in assay [9], in assay [10] and in [11] was > 100 µM each time.
As to `CC1=NN(c2nc(N)nc(CO)n2)C(C)(C)C1`, the TGI in assay [1], in assay [2], in assay [3], in assay [4], in [5] and in [6] was > 100 µM throughout. In addition, the TGI in assay [8], in assay [9], in [12], in assay [10] and in assay [11] was > 100 µM throughout.
In the case of `CCCC(=O)Nc1cc(C(=O)N2C[C@H]3C[C@@]34C2=CC(=O)c2[nH]cc(C)c24)n(COC)c1`, the GI50 is 1.2 µM in assay [1]; 0.0888 µM in assay [2]; 0.296 µM in [4]; 0.0328 µM in assay [6]; 0.135 µM in assay [7]; 0.147 µM in [9]. The GI50 in [12] is 0.0847 µM. Further, the TGI in assay [1] was 50 µM and 12.8 µM; in [2], 2.5 µM and 0.342 µM; in [3], 0.23 µM; in assay [4], 4.47 µM and 20.5 µM; in assay [5], 1.6 µM and 0.537 µM; in assay [6], 0.452 µM and 0.213 µM. Further, the TGI in assay [8] is 50 µM; in [12], 1.5 µM and 11.1 µM.

For the origin of these results see PubChem BioAssay (NCI).
